{
  "source": "patent US5215907A",
  "about": "“Thermostable acid protease from sulfolobus acidocaldarius” (Oklahoma Medical Research Foundation, priority 1992, dated 1993)",
  "note": "“Also recorded” adds a separate entry of the source. Numbered stars: 1 amine (or outer) side, 2 acyl side, 3 side chain; on linkers, the order of the positions; unused ones are H or OH. Peptide text beside a SMILES is read from it. CO = O=C([*:1])[*:2]",
  "data": [
    {"target": "T1, thermopsin, thermostable acid protease purified from Sulfolobus acidocaldarius culture medium (Sulfolobus acidocaldarius, UniProt P17118)", "T1 construct": "The purification of thermopsin, therefore, was carried out using culture media as starting material; endogenous in cells; host or cells: Sulfolobus acidocaldarius (natural producer); enzyme purified in-house from the culture medium, not recombinant", "T1 sequence (P17118 42-340)": "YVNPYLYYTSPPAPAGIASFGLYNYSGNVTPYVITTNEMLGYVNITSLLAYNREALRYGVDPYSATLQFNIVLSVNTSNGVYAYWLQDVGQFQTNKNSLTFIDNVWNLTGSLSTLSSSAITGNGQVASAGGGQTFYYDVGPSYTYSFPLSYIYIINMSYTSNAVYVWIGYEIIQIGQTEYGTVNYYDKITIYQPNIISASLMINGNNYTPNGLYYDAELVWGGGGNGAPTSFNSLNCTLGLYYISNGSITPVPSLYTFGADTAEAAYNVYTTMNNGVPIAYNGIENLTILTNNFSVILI", "assay": "Effects of proteinase inhibitors on thermopsin proteolytic activity (14C-methylated hemoglobin assay)", "type": "biochemical", "conditions": "no concentration stated; see Table II", "method": "Proteolytic activity is routinely assayed using ^14 C-methylated bovine hemoglobin as substrate, as prepared according to the method of Lin, et al., J. Biol. Chem., (1989, in press). The assay mixture, containing 0.51% hemoglobin substrate and thermopsin in 0.1 ml of 0.1M sodium formate, pH 3.2, is placed in an Eppendorf tube. After incubation at 80° C. for a period of time between 5 to 30 min, depending on the level of activity of thermopsin used, an aliquot of 0.1 ml of 10% trichloracetic acid is added to stop the reaction and precipitate the protein. After removal of the precipitate by centrifugation, the radioactivity of an aliquot of the clear supernate is determined in a scintillation counter.\nThe effect of various protease inhibitors on the activity of thermopsin was tested.\nThermopsin is preincubated with the indicated level of inhibitor in 0.1 M\nphosphate buffer, pH 6.0, containing 1 mM EDTA and DTT at 37° C.\nfor 5 min. Sodium formate (pH 3.2) and ^14 CHemoglobin is then added\nto a concentration as described above. The enzyme assay is then carried\nout at 80° C. for 15 min. Enzyme activity is expressed as percent", "values": [
      {"smiles": "CCCCC(NC(=O)C=[N+]=[N-])C(=O)OC", "note": "(racemic) [DAN, diazoacetyl-DL-norleucinemethlyester]", "effect of inhibitor on thermopsin activity (in words)": "not inactivated; also recorded: no effect"},
      {"smiles": "CCN1C(=O)C=CC1=O", "note": "[N-ethylmaleimide]", "effect of inhibitor on thermopsin activity (in words)": "little effect"},
      {"smiles": "Cc1ccc(S(=O)(=O)N[C@@H](Cc2ccccc2)C(=O)CCl)cc1", "note": "[TPCK, N-Tosyl-L-phenylalanine chloromethyl ketone]", "effect of inhibitor on thermopsin activity (in words)": "significantly inactivate; also recorded: significant inhibition"},
      {"smiles": "O=S(=O)(F)Cc1ccccc1", "note": "[PMSF, phenylmethylsulfonyl fluoride]", "effect of inhibitor on thermopsin activity (in words)": "significantly inactivate; also recorded: significant inhibition"},
      {"smiles": "CC(C)[C@H](NC(=O)[C@H](CCCNC(=N)N)NC(=O)N[C@@H](Cc1ccccc1)C(=O)O)C(=O)N[C@H](C=O)CCCNC(=N)N", "note": "[Antipain, antipain] ({Phe-CO}-Arg-Val-Arg-aldehyde)", "effect of inhibitor on thermopsin activity (in words)": "inhibited; also recorded: significant inhibition"},
      {"smiles": "Cc1ccc(S(=O)(=O)N[C@@H](CCCCN)C(=O)CCl)cc1", "note": "[TLCK, N-p-Tosyl-1-lysine chloromethyl ketone]", "effect of inhibitor on thermopsin activity (in words)": "much less effective"}
    ]}
  ]
}
